{"source": "ChEMBL document CHEMBL1121511", "about": "“Antileukemic compounds derived from the chemical modification of macrocyclic trichothecenes. 1. Derivatives of verrucarin A” (1980)", "tested_on": "P388", "experiment": "Antileukemic activity in vivo against P-388 mouse leukemia cell expressed as Dose", "type": "functional", "data": [{"compound": "CC(=O)OC1C(=O)OC[C@]23CC[C@H](C)C[C@H]2O[C@@H]2C[C@@H](OC(=O)/C=C\\C=C\\C(=O)OCCC1C)[C@@]3(C)C21CO1", "note": "(stereo partly specified) [VERRUCARIN A ACETATE]", "values": [{"measurement": "Dose", "value": ">1"}]}]}
